Values of other authors in patent US12410474B2, “Methods, kits, and devices for diagnosing, prognosing, and treating psychiatric disorders in a patient” (Northwestern University, priority 2014, dated 2025).

How the values were obtained:
[1] = tested on: HTR2C Ser23 and Cys23 isoreceptors; conditions: after prolonged pre-exposure to serotonin
HTR2C = molecular target: T1, HTR2C (Homo sapiens, UniProt P28335)
T1 sequence (P28335 33-458): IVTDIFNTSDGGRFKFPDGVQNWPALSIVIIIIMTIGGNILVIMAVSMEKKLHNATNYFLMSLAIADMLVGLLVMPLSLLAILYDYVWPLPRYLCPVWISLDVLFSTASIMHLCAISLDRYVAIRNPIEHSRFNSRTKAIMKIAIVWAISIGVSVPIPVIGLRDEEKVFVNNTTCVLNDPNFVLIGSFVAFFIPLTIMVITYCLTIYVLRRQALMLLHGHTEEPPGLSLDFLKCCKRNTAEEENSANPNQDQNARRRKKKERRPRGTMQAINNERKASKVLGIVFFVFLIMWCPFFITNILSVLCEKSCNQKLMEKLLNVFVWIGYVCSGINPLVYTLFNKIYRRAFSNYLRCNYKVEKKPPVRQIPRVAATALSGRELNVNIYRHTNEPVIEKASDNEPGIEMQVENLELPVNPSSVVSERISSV

HTR2A = HTR2A (Homo sapiens, UniProt P28223)
Chain of HTR2A (P28223 whole entry): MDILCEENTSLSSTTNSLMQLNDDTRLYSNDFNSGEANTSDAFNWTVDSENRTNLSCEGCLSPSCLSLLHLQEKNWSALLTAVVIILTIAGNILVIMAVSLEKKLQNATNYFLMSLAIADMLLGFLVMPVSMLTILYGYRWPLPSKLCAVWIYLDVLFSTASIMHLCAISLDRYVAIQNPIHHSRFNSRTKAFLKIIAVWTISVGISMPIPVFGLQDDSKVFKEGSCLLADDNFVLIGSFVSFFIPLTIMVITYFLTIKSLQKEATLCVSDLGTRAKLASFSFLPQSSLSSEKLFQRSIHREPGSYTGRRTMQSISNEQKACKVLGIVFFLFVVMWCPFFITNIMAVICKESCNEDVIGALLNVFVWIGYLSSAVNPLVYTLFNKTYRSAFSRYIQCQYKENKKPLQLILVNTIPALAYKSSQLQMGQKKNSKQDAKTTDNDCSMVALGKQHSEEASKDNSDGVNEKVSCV

Compound	functional activity at HTR2C (HTR2C)	other results
Cn1ccc2cc3c(cc21)CCN3C(=O)Nc1cccnc1 [SB206553]	–	cell surface expression in Ser-receptors versus Cys-receptors [1]: greater cell surface expression; resensitization in Ser-receptors versus Cys-receptors [1]: more rapid resensitization
Cc1nc2n(c(=O)c1CCN1CCC(c3noc4cc(F)ccc34)CC1)CCCC2 [risperidone]	potent inverse agonists	–
O=C(CCCN1CCC2(CC1)C(=O)NCN2c1ccccc1)c1ccc(F)cc1 [spiperone]	neutral antagonists	–
CN1CCN(CC/C=C2/c3ccccc3Sc3ccc(S(=O)(=O)N(C)C)cc32)CC1 [thiothixene]	neutral antagonists	–

Second part, led by results:

functional activity at HTR2C (HTR2C)	Compound	other results
neutral antagonists	CN(C)CCCN1c2ccccc2Sc2ccc(Cl)cc21 [chlorpromazine]	–
potent inverse agonists	O=C1NCCN1CCN1CCC(c2cn(-c3ccc(F)cc3)c3ccc(Cl)cc23)CC1 [sertindole]	functional activity at HTR2A (HTR2A): potent inverse agonists
neutral antagonists	CSc1ccc2c(c1)N(CCC1CCCCN1C)c1ccccc1S2 (stereo not drawn) [thioridazine]	–
